Experimental data: US20250066423A1, “SESTRIN-MAPK COMPLEX INHIBITORS” (Sentcell Ltd, priority 2021, published 2025)

How the values were obtained:
[1] = system: sMAC signalling (sestrin 1, 2 and 3 expression, AMPK and MAPK phosphorylation); test: Immunoblot of sMAC signalling in CD4+ T cells treated with DOS compounds (heat-map); format: cell-based, human
Protocol: CD4+ T cells were isolated from PBMCs from healthy donors, treated with DOS compounds for 4 hours and harvested for immunoblot analysis. The heat-map of Sestrin 1, Sestrin 2, Sestrin 3, p-mTOR1, p-JNK, p-AMPK, p-ERK1/2, and p-p38, represents the mean of three to nine experiments. Histone 3 was used as a control.
• 1. CD4+ cells were separated from PBMC using appropriate microbeads kit (Miltenyi) • 2. Cells were resuspended in whole RPMI medium and plated in the 24-multiwell plate • 3. Then activated for 4 hrs with DOS compounds • 4. Cells were then harvested, washed with PBS and resuspended in lysis buffer (RIPA with […]) • 5. The cell-lysis mix was incubated for 20 mins on ice • 6. Samples were centrifuged for 20 mins at the max speed • 7. The supernatant was collected and Lemmli buffer+β-Mercaptoethanol was added • 8. Samples were then boiled for 5 mins at 95° C. • 9. Samples were loaded on the polyacrylamide gel and left to run in TRIS-Glycine-SDS running buffer • 10. Once the run was completed the proteins were transferred from the gel to the nitrocellulose membrane by using the Trans-Blot machine (Biorad) • 11. Membrane was washed with 0.1% Tween-TBS buffer and blocked in 5% non-fat milk for 1 hr • 12. Followed incubation with the primary antibody o.n. • 13. The day after, the membrane was washed with 0.1% Tween-TBS buffer for three times for at least 30 mins each • 14. Secondary antibody was then added for 1h • 15. The membrane was the washed with 0.1% Tween-TBS buffer for three times for at least 30 mins each • 16. The signal was developed using ECL solution
This was shown by downregulation of sestrin 1, 2 and 3 expression, and AMPK and MAPK phosphorylation.

H1N1 PR8/54 = format: in vivo, mice; details: old mice, vaccination with DOS, H1N1 PR8/54
[2] = system: Breast cancer cell line (MCF-7); test: Cancer cell death by FACS live-dead staining; format: cell-based; details: 20 uM, 48 hours
Protocol: (§1) (Left) Immortalized paediatric neuroblastoma cell line (sh-sy5y) was treated at different concentrations of DOS46L and DOS144D (from 1 uM to 20 uM) for 48 hours, then analysed by FACS with live-dead staining. (Right) Breast cancer cell line (MCF-7) was treated at the fixed concentration of DOS46L and DOS144D (20 uM) for 48 hours, then analysed by FACS with live-dead dye staining. UN depicts untreated controls. Results of triplicate cultures are shown.

[3] = system: paediatric neuroblastoma cell line (sh-sy5y); test: Cancer cell death by FACS live-dead staining; format: cell-based; details: 1 uM to 20 uM, 48 hours
Protocol: as §1

Sestrin 2 = target: T1, Sestrin 2 (Homo sapiens, UniProt P58004); test: Streptavidin pull-down of biotinylated DOS46L with flag recombinant sestrins; format: binding; details: streptavidin immunoprecipitation
T1 sequence (P58004 1-480): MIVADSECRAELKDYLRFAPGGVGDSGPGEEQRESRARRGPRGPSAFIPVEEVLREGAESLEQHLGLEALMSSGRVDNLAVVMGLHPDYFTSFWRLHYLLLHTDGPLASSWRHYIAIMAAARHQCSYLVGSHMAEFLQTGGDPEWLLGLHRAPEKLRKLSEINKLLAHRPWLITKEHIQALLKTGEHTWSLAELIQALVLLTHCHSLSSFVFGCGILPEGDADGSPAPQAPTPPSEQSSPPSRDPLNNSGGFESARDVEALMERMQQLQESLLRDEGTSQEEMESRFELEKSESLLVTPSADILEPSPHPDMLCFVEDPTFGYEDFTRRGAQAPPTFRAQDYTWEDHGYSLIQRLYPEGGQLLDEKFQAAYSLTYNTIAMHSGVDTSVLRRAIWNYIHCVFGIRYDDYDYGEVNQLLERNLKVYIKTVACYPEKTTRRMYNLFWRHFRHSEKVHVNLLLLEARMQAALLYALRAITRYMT
Protocol: (§2) (A) Biotinylated DOS46L was mixed with flag recombinant Sestrins, immunoprecipitated with streptavidin and immunoblotted with flag Sestrins. […] Representative images from three experiments are shown. […] (D) DOS46L binds to the entire sMAC complex in CD4 T cells. CD4+ T cells were isolated from PBMCs from healthy donors and treated with biotinylated DOS46L compound (10 uM) for 4 hours. Cells were harvested for immunoprecipitation analysis.
(§3) The selective interaction was also studied using the cutting-edge […] algorithm for molecular docking predictions based on the deposited sestrin 2 crystal structure.

sestrin 1 = target: T2, sestrin 1 (Homo sapiens, UniProt Q9Y6P5); test: as above; format: binding; details: streptavidin immunoprecipitation
T2 sequence (Q9Y6P5 1-492): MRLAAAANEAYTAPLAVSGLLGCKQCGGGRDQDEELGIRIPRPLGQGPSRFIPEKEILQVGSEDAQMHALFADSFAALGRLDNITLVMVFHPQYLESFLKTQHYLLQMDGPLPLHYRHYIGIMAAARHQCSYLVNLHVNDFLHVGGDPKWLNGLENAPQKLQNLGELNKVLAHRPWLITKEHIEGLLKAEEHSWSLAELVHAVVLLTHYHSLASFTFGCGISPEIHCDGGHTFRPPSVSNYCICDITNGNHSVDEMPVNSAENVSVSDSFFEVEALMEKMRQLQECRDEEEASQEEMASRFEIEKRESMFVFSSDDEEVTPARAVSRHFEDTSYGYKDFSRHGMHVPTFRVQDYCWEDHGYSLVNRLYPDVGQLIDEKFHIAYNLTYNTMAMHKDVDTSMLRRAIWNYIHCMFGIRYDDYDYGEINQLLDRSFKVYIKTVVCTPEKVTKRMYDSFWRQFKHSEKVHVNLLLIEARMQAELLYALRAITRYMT
Protocol: as §2, §3

[4] = target: T3, GATOR complex (WDR59 and mTOR) (Homo sapiens, UniProt P42345+Q6PJI9); test: Pull-down of biotinylated DOS46L from CD4+ T cells; format: binding; details: 10 uM, 4 hours
T3 construct: endogenous in cells; host or cells: primary CD4+ T cells from PBMCs of healthy donors
Protocol: as §2
(§4) • 1. Cell pellet was lysed with 100 μL of denaturing lysis buffer • 2. Then mixed well by vortexing vigorously for 2-3 sec at maximum speed. • 3. Samples were then boiled at 95° C. for 5 min. • 4. Samples were then diluted 900 μl of non-denaturing lysis buffer and mixed gently. • 5. Cell lysates were then passed through a needle attached to a 1 ml syringe for 5-10 times or were sonicated. • 6. Incubated then on ice for 5 min • 7. Samples were pre-cleaned by spinning at the max speed at 4° C. for 20 min. • 8. Supernatants were collected in a new tube • 9. 7 ul (5 μg) of SESN2 (abcam) primary anti-body was added directly to the supernatant and incubated on the rota o.n. at 4° C. • 10. 200 ul of protein A/G beads were washed 4-5 times in IP buffer and blocked then o.n. in IP buffer with BSA and left on the rota at 4° C. • 11. The day after, 50 ul of protein A/G beads were added to the sample and incubated for 3 hrs on the rota at 4° C. • 12. […]

[5] = target: T4, sMAC (sestrin 1, 2, and 3, AMPK and MAPKs) (Homo sapiens, UniProt P58004+Q9Y6P5); test: Pull-down of biotinylated DOS46L from CD4+ T cells; format: binding; details: 10 uM, 4 hours
T4 construct: endogenous in cells; host or cells: primary CD4+ T cells from PBMCs of healthy donors
T4 sequence (Q9Y6P5 1-492): T2 sequence (Q9Y6P5 1-492)
T4 sequence (P58004 1-480): T1 sequence (P58004 1-480)
T4 sequence (P58005 1-492 partner): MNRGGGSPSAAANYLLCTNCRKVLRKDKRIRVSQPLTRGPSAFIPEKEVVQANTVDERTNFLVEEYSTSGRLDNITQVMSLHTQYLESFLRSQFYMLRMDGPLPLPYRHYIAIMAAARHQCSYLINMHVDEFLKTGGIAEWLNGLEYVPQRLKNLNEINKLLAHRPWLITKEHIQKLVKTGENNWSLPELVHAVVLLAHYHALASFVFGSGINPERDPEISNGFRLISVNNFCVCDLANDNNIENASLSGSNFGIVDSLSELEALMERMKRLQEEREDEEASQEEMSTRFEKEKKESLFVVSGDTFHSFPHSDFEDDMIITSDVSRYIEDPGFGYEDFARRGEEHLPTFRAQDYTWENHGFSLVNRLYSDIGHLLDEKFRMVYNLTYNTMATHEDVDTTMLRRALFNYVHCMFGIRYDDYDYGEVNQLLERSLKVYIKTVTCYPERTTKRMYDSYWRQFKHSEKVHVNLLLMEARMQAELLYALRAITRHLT
Protocol: as §2, §4

[6] = target: T5, flag recombinant Sestrin 3 (UniProt P58005 1-492, limits assumed); test: recombinant sestrins, precipitation and immunoblot (FIG. 8B-C)
T5 construct: also called flagged sestrin 3; not shown: flag tag
T5 sequence (looked up): T4 sequence (P58005 1-492 partner)

T3 sequence (Q6PJI9 whole entry, other chains not shown): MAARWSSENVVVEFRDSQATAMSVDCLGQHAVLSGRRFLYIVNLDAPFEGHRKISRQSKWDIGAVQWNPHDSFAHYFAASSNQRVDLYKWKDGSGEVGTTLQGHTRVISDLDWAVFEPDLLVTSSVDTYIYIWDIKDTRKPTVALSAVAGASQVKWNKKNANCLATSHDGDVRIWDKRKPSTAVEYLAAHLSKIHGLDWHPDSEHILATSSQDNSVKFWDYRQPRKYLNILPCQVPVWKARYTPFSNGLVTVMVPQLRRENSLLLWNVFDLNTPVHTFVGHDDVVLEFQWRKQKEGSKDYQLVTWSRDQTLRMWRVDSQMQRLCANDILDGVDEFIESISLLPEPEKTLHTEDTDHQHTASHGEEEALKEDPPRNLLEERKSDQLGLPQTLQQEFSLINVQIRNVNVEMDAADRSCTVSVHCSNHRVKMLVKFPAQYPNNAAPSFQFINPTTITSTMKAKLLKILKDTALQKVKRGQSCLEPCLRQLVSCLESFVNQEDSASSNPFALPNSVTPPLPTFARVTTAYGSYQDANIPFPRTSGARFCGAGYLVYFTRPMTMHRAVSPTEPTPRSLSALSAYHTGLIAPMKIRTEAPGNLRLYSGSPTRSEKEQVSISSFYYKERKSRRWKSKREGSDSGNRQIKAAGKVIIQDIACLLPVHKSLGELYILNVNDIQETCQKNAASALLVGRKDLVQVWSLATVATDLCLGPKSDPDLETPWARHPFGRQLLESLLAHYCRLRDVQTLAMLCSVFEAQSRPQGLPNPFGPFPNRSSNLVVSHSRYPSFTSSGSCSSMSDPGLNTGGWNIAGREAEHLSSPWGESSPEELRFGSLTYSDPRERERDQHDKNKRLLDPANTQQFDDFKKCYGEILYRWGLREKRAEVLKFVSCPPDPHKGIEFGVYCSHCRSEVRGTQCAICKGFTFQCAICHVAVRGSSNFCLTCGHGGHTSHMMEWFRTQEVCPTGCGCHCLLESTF

## CC(C)C[C@H]1NC(=O)[C@@H](CC(C)C)NC(=O)[C@@H](Cc2c[nH]c3ccccc23)NC(=O)[C@@H](CCC(=O)O)NC(=O)CNC1=O [DOS144D]
[1]
  effectiveness at sMAC inactivation among all of the DOS compounds tested: most effective
[1]; CD4+ T cells, 4 hours, FIG. 5 heat-map
  sestrins inhibited (pan or selective inhibitor): inhibit all three sestrins
H1N1 PR8/54
  survival data, comparison of compounds: similar
[2]
  cancer cell death: induction of cancer cell death
[3]
  cancer cell death: induction of cancer cell death

## biotinylated DOS46L: biotinylated variant of DOS46L used for pull-down (cyclo(AFIPV); also: biotinylated, site not given here)
Sestrin 2
  direct binding to sestrin 2: directly binds
Sestrin 1
  direct binding to sestrin 1: directly binds
[4]
  association with elements of the GATOR complex in cells: not with elements of the GATOR complex
[5]
  association with sMAC in cells: found in the sMAC

B1: flag recombinant Sestrin 1 (other, UniProt Q9Y6P5 1-492, looked up)
chain: T2 sequence (Q9Y6P5 1-492)
notes: also called flagged sestrin 1; not shown: flag tag
[6]
  binding result: no binding
